How the values were obtained:
[1] = system: DOX-induced cardio and hepatotoxicities; experiment: Doxorubicin (DOX)-induced acute heart failure animal model; format: in vivo, mice
Procedure: This animal model is associated with an increase in oxidative stress and causes significant hepatopathy after DOX injection.
Specifically, 20-week-old male mice were injected intraperitoneally once with 20 mg/kg of DOX. […] Mortality was observed up to 10 days after DOX administration. After 10 days, the mice were sacrificed and the expressions of enzymes in the heart and liver tissues were analyzed. The cardiac function of the mice was also measured by echocardiogram.

[2] = H2O2 scavenging by PVAX or MnP-PVAX microparticles (amplex red assay); conditions: 10 μM H2O2, 1 mg microparticles, 37° C., 6 or 24 h
Procedure: After short centrifugation, the concentration of H2O2 in the supernatant was measured using an amplex red assay (Invitrogen, US).

RAW 264.7 cells = experiment: NO production in LPS-treated cells (Griess reaction); format: cell-based; conditions: LPS-treated RAW 264.7, Griess
Procedure: The concentration of NO was determined using a colorimetric assay based on the Griess reaction. 50 μL of cell culture medium was collected and given 100 μL of Griess reagent (6 mg/mL) at room temperature for 10 min, and then the NO concentration was determined by measuring the absorbance at 540 nm using a microplate reader (Synergy MX, BioTek Instruments, US). The NO standard curve was constructed using known concentrations of sodium nitrite.

[3] = system: OVA-induced allergic airway inflammation; experiment: Mouse model of ovalbumin (OVA)-induced allergic asthma; format: in vivo, BALB/c mice; conditions: OVA-sensitized and challenged mice, ELISA
Procedure: On days 15, 16 and 17, mice were challenged intranasally with 50 μg of OVA. […] A sham group was given PBS only. On day 19, the mice were sacrificed and lung lobes were isolated along with the trachea. Lungs were also lavaged with 500 μL of PBS introduced through the trachea. BALF (bronchiolavage fluid) was centrifuged at 300×g for 5 min, and cells were rinsed and resuspended with PBS. Aliquots of the cell suspension were applied to slides by Cytospin (Hanil, Korea) at 500×g for 5 minutes allowed to air dry and stained with modified Wright's stain (Hema-3, Fisher Scientific). The numbers of macrophages, eosinophils, neutrophils and lymphocytes were determined morphologically and a minimum of 200 cells per slide were counted under the microscope (Eclipse, Nikon, Japan). The level of TNF-α in the supernatant of BALF was measured with an ELISA kit as advised by manufacturer (eBioScience, San Diego, Calif.). Lungs were perfused with PBS, removed and fixed in 4% buffered formalin. Lungs were embedded in paraffin and serial paraffin sections (3 μm) were cut. The sections were stained with hematoxylin (Yeongdong Pharma, Korea) and eosin (Showa Chemicals, Japan). Results are illustrated in FIGS. 49-51.

[4] = system: RAW 264.7 cells activated with PMA; experiment: ROS production in PMA-activated cells (DCFH-DA, flow cytometry); format: cell-based; conditions: PMA-stimulated; VA 0.5 mM, PVAX 100 μg
Procedure: The cells were treated with […] to stimulate the production of reactive oxygen species in the cells. After 4 hours, the cells were treated with DCFH-DA (dichlorofluorescin-diacetate), after which DCF ([…]) (a marker of intracellular oxidative stress) was analyzed using a flow cytometer (Becton Dickinson, US).

[5] = Particle stability versus loading ratio; format: physicochemical
Source text: However, PVAX allowed greater ratio of VA-CHDM (up to 60%), providing greater therapeutic effects without significant compromise of the stability.

[6] = echocardiogram, DOX-treated mice

COc1cccc2c1C(=O)c1c(O)c3c(c(O)c1C2=O)C[C@@](O)(C(=O)CO)C[C@@H]3O[C@H]1C[C@H](N)[C@H](O)[C@H](C)O1 [DOX, doxorubicin]
survival ([1]; 10 days after DOX, p<0.05): 35% | ejection fraction (EF), mean [1, 6]: 25.54 | fractional shortening (FS), mean [1, 6]: 50.41 | mortality rate ([1]; observation up to 10 days after DOX 20 mg/kg i.p., PVAX daily): 65%

C1=Cc2cc3ccc(cc4nc(cc5ccc(cc1n2)[nH]5)C=C4)[nH]3.[Mn] [MnP, manganese porphyrin]
H2O2 scavenging activity [2]: H2O2 scavenging activity in a time-dependent manner | inhibitory effects on NO production (RAW 264.7 cells): inhibitory effects on NO production, not significant

COc1cc(CO)ccc1O [VA, 4-(hydroxymethyl)-2-methoxyphenol]
inhibitory effects on NO production (RAW 264.7 cells): inhibitory effects on NO production, not significant | expression of TNF-α in BALF [3]: suppressed the expression of TNF-α | intracellular ROS generation (DCF fluorescence) [4]: only slightly suppressed ROS generation

poly(p-hydroxy-benzyl alcohol (HBA)-oxalic acid) copolymer [HPOX]
particle stability / feasibility of loading [5]: not feasible due to instability of the particles

Reference: US9844564B2 (Industrial Cooperation Foundation Chonbuk National …, priority 2012, dated 2017)
